Results from a melting point compilation (Tetko et al.; mined from patent text by program, amines drawn as free bases though some values may be those of a salt).

Structure (SMILES) | melting point [°C]
CCCCCCOCCCCCCCCCCCSCCCO | 27 to 29
Cc1ccc(-c2ccc(C(=O)O)cc2)c(N)c1 | 273 to 278
Cn1cc(-c2ccccc2)c(=O)c(-c2ccc(Cl)cc2)c1 | 142
Cc1ccc(-c2nc3ccccc3nc2-c2ccc(C)cc2)cc1 | 149
CC(=NOCCc1ccc(C)cc1)C(=O)O | 106 to 108
OCc1cccc2sc(-c3ccccc3)nc12 | 116 to 117
O=[N+]([O-])c1cc(S(=O)(=O)C(F)(F)F)[nH]c1-c1ccc(Cl)cc1 | 97 to 99
O=C(O)CCCCCN1C(=O)c2ccc(C(=O)O)cc2C1=O | 202 to 204
N#C[C@H]1CC(F)(F)CN1C(=O)CNC1(CO)CCC2(CCOCC2)CC1 | 128
O=C1NC2(CCCc3sccc32)c2ccccc21 (stereo not given) | 224 to 226
Cc1c2ccccc2c(-c2ccc(O)cc2)c2c1sc1ccccc12 | 184 to 185
N=C(N)Cc1ccccc1-n1cnc2cnc3ccc(-c4ccccc4)cc3c21 | 261 to 263
CCn1nc2c(N)nc3ccccc3c2c1CCCCO | 159 to 160
O=C1C(=O)c2c(nc3ccccn23)-c2cccc(Br)c21 | > 260
COC(=N)N1CCC(c2n[nH]c3cc(F)ccc23)CC1 | 162 to 164
Cc1ccc(N)c(OCCOc2cc(C(=O)OC(C)(C)C)ccc2N)c1 | 154 to 156
CCCCc1c(C(=O)O)ccc2c(OC)cccc12 | 154 to 155
CCc1nc2c(N)nc(C)c(C)c2n1CCOCCNC(=O)NS(=O)(=O)c1ccccc1 | 201 to 203
Cc1ccc(C(=O)C2=C(O)C(=O)N(c3ccc(C)nn3)C2c2ccc(OC(C)C)cc2)cc1 (stereo not given) | 268 to 272
O=C1c2ccccc2C(=O)N1Cc1noc(-c2ncn3c2[C@@H]2CCN2C(=O)c2sccc2-3)n1 | 155 to 157

Structure (SMILES) | melting point [°C]
Cc1cc2oc(S(=O)(=O)N=CN(C)C)cc2cn1 | 175 to 177
COC(=O)c1c(OC)cccc1C(=O)O | 140 to 141
CCCCCCCCCCCCNC(=O)c1cc(-c2ccc(OC)cc2)c(OCC(=O)O)c(-c2cccc(Cl)c2)c1 | 114 to 117
Cc1c(Cl)cccc1S(=O)(=O)Nc1nc(CC(=O)Oc2ccccc2)cs1 | 189
O=C1OC(=O)c2c(C(F)(F)F)c3ccccc3c3cccc1c23 | 235 to 237
CCOC(=O)/C=C/c1ccc(OCCOC)cc1OCc1nc(-c2ccccc2)oc1C | 109 to 110
O=C(C=Cc1ccc(OC(F)(F)F)cc1)C=Cc1ccc(OC(F)(F)F)cc1 | 112 to 115
Nc1ccc(-c2c(Cc3ccccc3)sc3ncnc(N)c23)cc1 | 208 to 210
COc1c(C)c(C)c(OC)c(CN2C(=O)C3CCCC3=Nc3ccccc32)c1C (stereo not given) | 202 to 204
CS(=O)(=O)Nc1c(CCCCCCC(=O)O)ccc2ccccc12 | 122 to 127
CS(=O)c1cccc(-n2cnc(-c3ccc(F)cc3)c2-c2ccncc2)c1 (stereo not given) | 233 to 234
CCC(NC(C)=O)c1ccc(Cl)c2nc3n(c12)CCCN3c1ccc(Cl)cc1Cl (stereo not given) | 237 to 239
Cc1nc2sccn2c(=O)c1CCN1CCC(=C2c3ccccc3CCn3ccnc32)CC1 | 182
CCOC(=O)N(O)Cc1cccc(Nc2ccccc2C(=O)OC)c1Cl | 108 to 110
COC(=O)c1c(Nc2ccccc2)nn(C(C)=O)c1C | 115 to 116
N#Cc1cccc(NC(=O)CN2CCC(Cc3ccccc3)CC2)c1 | 88 to 90
COc1ccc(CC(=O)N(Cc2ccc(C)cc2)C2CCN(CC3CCCCC3)CC2)cc1 | 133 to 135
CS(=O)(=O)CCNc1nccc(Oc2ccc(NC(=O)c3cc(F)cc(N4CCCCC4)c3)c3ccccc23)n1 | 102 to 104
Cc1c(-c2ccccc2)oc2c(C(=O)N(C)CCO)cccc2c1=O | 128 to 130
O=C(O)CNC(=O)[C@@H](CO)NC(=O)CNC(=O)CSC(=O)c1ccccc1 | 149
